Data: patent publication US12145944B2, “Imidazopyrimidines as EED inhibitors and the use thereof” (THE REGENTS OF THE UNIVERSITY OF MICHIGAN, priority 2019, dated 2024)
Like-named read-outs stand apart in the source and are kept apart here.

Tests used:
EED (1-441)-His protein = target: T1, EED (1-441)-His protein (Homo sapiens, UniProt O75530); experiment: EED-H3K27Me3 peptide competition binding assay by AlphaScreen
T1 construct: 20 nM EED (1-441)-His protein
Description: “N/A” stands for “not assessed”.
EED-H3K27Me3 peptide competition binding assay by AlphaScreen (α-screen)
2.5 μl of solutions containing 20 nM biotin-H3K27Me3 (19-33) peptide in the buffer (25 mM HEPES, pH 8, 0.02% Tween-20, 0.5% BSA) were added to the wells and then incubated with compound for 30 min. […] Then 10 μl of the detection beads mix was added to the plate and incubated in the dark at RT for 1 h. The final concentration of donor and acceptor beads was 10 μg/ml for each. […] The data were then fit to a dose response equation to get the IC50 values.

[1] = test system: KARPAS422 human B cell lymphoma cell; experiment: Cell proliferation, KARPAS422, 7 day treatment (WST-8); assay type: cell-based
Method in brief: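 KARPAS422 cells seeded at 2 000-3 000 cells/well and exposed to serially diluted compounds for 7 days at 37 °C, 5% CO2. Growth measured by WST-8 (1-4 h, absorbance 450 nm). Readings normalized to DMSO-treated cells; IC50 from nonlinear regression.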

Pfeiffer cell line = experiment: Anti-proliferative activity, Pfeiffer cell line, 7 day treatment; assay type: cell-based; details: Homo sapiens, 168 h
Method in brief: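 Cells seeded at 2 000-3 000 per well were treated with serially diluted compounds for 7 days at 37° C, 5% CO2. Growth was measured by WST-8 assay read at 450 nm after 1-4 h reagent incubation. Readings were normalized to DMSO-treated cells and IC50 values derived by nonlinear regression.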

[2] = EED Alpha screen binding assay, read-out: Alpha screen
[3] = Homo sapiens, KARPAS-422, 168 h, anti-proliferative IC50, Karpas 422 cell line, 7 day treatment, read-out: Karpas Cell line
[4] = EED Alpha screen binding assay, IC50 class, read-out: Alpha screen
[5] = Homo sapiens, KARPAS-422, 168 h, anti-proliferative IC50 class, Karpas 422 cell line, 7 day treatment, read-out: Karpas Cell line
[6] = anti-proliferative IC50 class, Pfeiffer cell line, 7 day treatment, read-out: Pfeiffer Cell line
[7] = Homo sapiens, KARPAS-422, 168 h, read-out: Karpas Cell line (nM)
[8] = anti-proliferative IC50, Karpas 422 cell line, 7 day treatment, read-out: Karpas Cell line

T1 sequence (O75530 whole entry): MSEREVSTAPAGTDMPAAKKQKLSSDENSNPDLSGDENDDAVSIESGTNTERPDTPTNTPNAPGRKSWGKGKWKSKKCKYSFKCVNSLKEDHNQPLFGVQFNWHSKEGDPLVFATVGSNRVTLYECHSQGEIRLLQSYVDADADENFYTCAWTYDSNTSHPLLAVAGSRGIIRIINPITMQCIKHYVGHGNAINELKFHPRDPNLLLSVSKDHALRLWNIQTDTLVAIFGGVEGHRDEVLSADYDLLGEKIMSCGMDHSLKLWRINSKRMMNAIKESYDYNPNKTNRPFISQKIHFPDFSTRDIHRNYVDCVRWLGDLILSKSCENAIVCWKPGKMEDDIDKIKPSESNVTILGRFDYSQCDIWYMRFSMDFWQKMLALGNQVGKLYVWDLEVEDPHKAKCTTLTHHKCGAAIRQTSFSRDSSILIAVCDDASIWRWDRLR

Molecule: O=C1Nc2ncccc2-c2cnc(NCc3c(F)ccc4c3CCO4)n3cnc1c23 [compound 4, 11-(((5-fluoro-2,3-dihydrobenzofuran-4-yl)methyl)amino)-2,4,5,10,11a-pentaazadibenzo[cd,f]azulen-3(4H)-one]
- IC50 (EED (1-441)-His protein; [2]): > 10 nM
- IC50 [1, 3]: > 100 nM
- IC50 (Pfeiffer cell line; anti-proliferative IC50, Pfeiffer cell line, 7 day treatment, read-out: Pfeiffer Cell line): > 100 nM

Molecule: [2H]C1Oc2ccc(F)c(C([2H])([2H])Nc3ncc4c5c(ncn35)C(=O)N(CC(F)(F)F)Cc3nc(C([2H])([2H])[2H])ccc3-4)c2C1[2H] (centres unmarked) [E 23, 12-(((5-fluoro-2,3-dihydrobenzofuran-4-yl-2,3-d2)methyl-d2)amino)-7-(methyl-d3)-4-(2,2,2-trifluoroethyl)-4,5-dihydro-3H-2,4,6,11,12a-pentaazabenzo[4,5]cycloocta[1,2,3-cd]inden-3-one]
- IC50 (EED (1-441)-His protein; [4]): < 10 nM
- IC50 [1, 5]: < 10 nM
- IC50 (Pfeiffer cell line; [6]): < 10 nM

Molecule: CS(=O)(=O)c1ncn2c(NCc3c(F)ccc4c3CCO4)ncc(-c3ccc(C(F)(F)F)nc3)c12 [compound 102, N-((5-fluoro-2,3-dihydrobenzofuran-4-yl)methyl)-1-(methylsulfonyl)-8-(6-(trifluoromethyl)pyridin-3-yl)imidazo[1,5-c]pyrimidin-5-amine]
- IC50 (EED (1-441)-His protein; [2]): 0.62 nM
- IC50 [1, 7]: 0.94 nM
- IC50 (Pfeiffer cell line; Pfeiffer, read-out: Pfeiffer Cell line (nM)): 0.59 nM

Molecule: [2H]C([2H])([2H])c1ccc2c(n1)CN(CC(F)(F)F)C(=O)c1ncn3c(NCc4c(F)ccc5c4CCO5)ncc-2c13 [E 19, 12-(((5-fluoro-2,3-dihydrobenzofuran-4-yl)methyl)amino)-7-(methyl-d3)-4-(2,2,2-trifluoroethyl)-4,5-dihydro-3H-2,4,6,11,12a-pentaazabenzo[4,5]cycloocta[1,2,3-cd]inden-3-one]
- IC50 (EED (1-441)-His protein; [4]): < 10 nM
- IC50 [1, 5]: < 10 nM
- IC50 (Pfeiffer cell line; [6]): < 10 nM

Molecule: Fc1ccc2c(c1CNc1ncc(-c3ccc(C(F)(F)F)cc3)c3c(C(F)(F)F)ncn13)CCO2 [compound 113, N-((5-fluoro-2,3-dihydrobenzofuran-4-yl)methyl)-1-(trifluoromethyl)-8-(4-(trifluoromethyl)phenyl)imidazo[1,5-c]pyrimidin-5-amine]
- IC50 (EED (1-441)-His protein; [2]): 0.98 nM
- IC50 [1, 3]: > 100 nM

Molecule: 4-(2,2-difluoroethyl)-7-fluoro-12-(((5-fluoro-2,3- dihydrobenzofuran-4-yl)methyl)amino)-4,5-dihydro- 3H-2,4,11,12a-tetraazabenzo[4,5]cycloocta[1,2,3- cd]inden-3-one [compound 80]
- IC50 (EED (1-441)-His protein; [2]): 1.61 nM
- IC50 [1, 8]: 2.42 nM

Molecule: Cc1cc(S(C)(=O)=O)ccc1-c1cnc(NCc2c(F)ccc3c2CCO3)n2cnc(S(C)(=O)=O)c12 [compound 110, N-((5-fluoro-2,3-dihydrobenzofuran-4-yl)methyl)-8-(2-methyl-4-(methylsulfonyl)phenyl)-1-(methylsulfonyl)imidazo[1,5-c]pyrimidin-5-amine]
- IC50 (EED (1-441)-His protein; [2]): 0.47 nM
- IC50 [1, 7]: 3.93 nM

Molecule: CCP(=O)(CC)c1ncn2c(NCc3c(F)ccc4c3CCO4)ncc(-c3ccc(F)cc3)c12 [compound 124, diethyl(5-(((5-fluoro-2,3-dihydrobenzofuran-4-yl)methyl)amino)-8-(4-fluorophenyl)imidazo[1,5-c]pyrimidin-1-yl)phosphine oxide]
- IC50 (EED (1-441)-His protein; [2]): 8.04 nM
- IC50 [1, 3]: 72 nM

Molecule: CS(=O)(=O)c1ncn2c(NCc3c(F)ccc4c3CCO4)ncc(-c3ccc(C(F)F)nc3)c12 [compound 107, 8-(6-(difluoromethyl)pyridin-3-yl)-N-((5-fluoro-2,3-dihydrobenzofuran-4-yl)methyl)-1-(methylsulfonyl)imidazo[1,5-c]pyrimidin-5-amine]
- IC50 (EED (1-441)-His protein): 0.215 nM
- IC50 [1, 7]: 2.84 nM

Molecule: Fc1ccc2c(c1CNc1ncc(-c3ccc(C(F)(F)F)nc3)c3c(C(F)(F)F)ncn13)CCO2 [compound 116, N-((5-fluoro-2,3-dihydrobenzofuran-4-yl)methyl)-1-(trifluoromethyl)-8-(6-(trifluoromethyl)pyridin-3-yl)imidazo[1,5-c]pyrimidin-5-amine]
- IC50 (EED (1-441)-His protein; [2]): 1.98 nM
- IC50 [1, 3]: > 100 nM

Molecule: 7-fluoro-12-(((5-fluoro-2,3-dihydrobenzofuran-4- yl)methyl)amino)-4-(1-methylpiperidin-4-yl)-4,5- dihydro-3H-2,4,11,12a- tetraazabenzo[4,5]cycloocta[1,2,3-cd]inden-3-one [compound 75]
- IC50 (EED (1-441)-His protein; [2]): 1.72 nM
- IC50 [1, 8]: 11.1 nM

Molecule: CS(=O)(=O)c1ncn2c(NCc3c(F)ccc4c3CCO4)ncc(-c3ccc(C4CC4)nc3)c12 [compound 111, 8-(6-cyclopropylpyridin-3-yl)-N-((5-fluoro-2,3-dihydrobenzofuran-4-yl)methyl)-1-(methylsulfonyl)imidazo[1,5-c]pyrimidin-5-amine]
- IC50 (EED (1-441)-His protein; [2]): 0.34 nM
- IC50 [1, 7]: 1.42 nM

Molecule: 4-(2,2-difluoropropyl)-7-fluoro-12-(((5-fluoro-2,3- dihydrobenzofuran-4-yl)methyl)amino)-4,5-dihydro- 3H-2,4,11,12a-tetraazabenzo[4,5]cycloocta[1,2,3- cd]inden-3-one [compound 76]
- IC50 (EED (1-441)-His protein; [2]): 0.97 nM
- IC50 [1, 8]: 14.5 nM

Molecule: Cn1cc(-c2cnc(NCc3c(F)ccc4c3CCO4)n3cnc(S(C)(=O)=O)c23)cn1 [compound 106, N-((5-fluoro-2,3-dihydrobenzofuran-4-yl)methyl)-8-(1-methyl-1H-pyrazol-4-yl)-1-(methylsulfonyl)imidazo[1,5-c]pyrimidin-5-amine]
- IC50 (EED (1-441)-His protein; [2]): 0.556 nM
- IC50 [1, 7]: 10.6 nM

Molecule: CCP(=O)(CC)c1ncn2c(NCc3c(F)ccc4c3CCO4)ncc(-c3ccc(S(C)(=O)=O)cc3)c12 [compound 122, diethyl(5-(((5-fluoro-2,3-dihydrobenzofuran-4-yl)methyl)amino)-8-(4-(methylsulfonyl)phenyl)imidazo[1,5-c]pyrimidin-1-yl)phosphine oxide]
- IC50 (EED (1-441)-His protein; [2]): 0.31 nM
- IC50 [1, 3]: > 100 nM

Molecule: 7-fluoro-12-(((5-fluoro-2,3-dihydrobenzofuran-4- yl)methyl)amino)-4-(2-fluoro-2-methylpropyl)-4,5- dihydro-3H-2,4,11,12a- tetraazabenzo[4,5]cycloocta[1,2,3-cd]inden-3-one [compound 78]
- IC50 (EED (1-441)-His protein; [2]): 3.23 nM
- IC50 [1, 8]: 34.5 nM

Molecule: CCP(=O)(CC)c1ncn2c(NCc3c(F)ccc4c3CCO4)ncc(-c3ccc(C(F)(F)F)cc3)c12 [compound 121, diethyl(5-(((5-fluoro-2,3-dihydrobenzofuran-4-yl)methyl)amino)-8-(4-(trifluoromethyl)phenyl)imidazo[1,5-c]pyrimidin-1-yl)phosphine oxide]
- IC50 (EED (1-441)-His protein; [2]): 0.31 nM
- IC50 [1, 3]: > 100 nM

Molecule: Cc1nc(C(F)(F)F)ccc1-c1cnc(NCc2c(F)ccc3c2CCO3)n2cnc(S(C)(=O)=O)c12 [compound 109, N-((5-fluoro-2,3-dihydrobenzofuran-4-yl)methyl)-8-(2-methyl-6-(trifluoromethyl)pyridin-3-yl)-1-(methylsulfonyl)imidazo[1,5-c]pyrimidin-5-amine]
- IC50 (EED (1-441)-His protein; [2]): 0.53 nM
- IC50 [1, 7]: 10.9 nM

Molecule: Cc1ccc(-c2cnc(NCc3c(F)ccc4c3CCO4)n3cnc(S(C)(=O)=O)c23)c(C)n1 [compound 108, 8-(2,6-dimethylpyridin-3-yl)-N-((5-fluoro-2,3-dihydrobenzofuran-4-yl)methyl)-1-(methylsulfonyl)imidazo[1,5-c]pyrimidin-5-amine]
- IC50 (EED (1-441)-His protein; [2]): 0.421 nM
- IC50 [1, 7]: 6.89 nM

Molecule: CS(=O)(=O)c1ccc(-c2cnc(NCc3c(F)ccc4c3CCO4)n3cnc(C(F)(F)F)c23)cc1 [compound 112, N-((5-fluoro-2,3-dihydrobenzofuran-4-yl)methyl)-8-(4-(methylsulfonyl)phenyl)-1-(trifluoromethyl)imidazo[1,5-c]pyrimidin-5-amine]
- IC50 (EED (1-441)-His protein; [2]): 0.83 nM
- IC50 [1, 3]: 20.3 nM
